Source: patent US11198680B2 (BioAxone BioSciences, Inc., priority 2016, dated 2021)
Where two headings read alike, the source gives them in different places.

Key:
ROCK1 = ROCK1 (Homo sapiens (Human), UniProt Q13464); assay: Direct filter-binding radiometric kinase assay, IC50 determination; format: biochemical
Procedure: Variations in ATP concentrations were tested to better understand potential selectivity in ischemic and diseased tissue where ATP concentrations may be low and impact selectivity.
[…] Both services use a direct filter-binding, radiometric kinase assay with slight variation in protocol.
The top concentration tested was 100 μM for both services. Test compounds were prepared in 100% DMSO at 50× final test concentration and were diluted to 1× in the assay with a final DMSO concentration of 2%.
For one assay, the substrate […] (SEQ ID NO:1) (30 μM) was mixed with reaction buffer (Table 4) and the kinase domain from either the ROCK1 or ROCK2 (as indicated in Table 4). Next, the compounds (in DMSO) were delivered into the mixture via acoustic mixing technology (Echo550, nanoliter range) (SelectScience, Waltham, Mass.), and incubated at RT for 20 min. […] Reactions were then spotted onto P81 ion exchange paper followed by scintillation counting.
The reaction was stopped by the addition of 3% phosphoric acid and 10 μL of the reaction was spotted onto P30 filtermat, washed 3 times in 75 mM phosphoric acid and once in methanol prior to scintillation counting.

5-HT2b-receptor = 5-HT2b-receptor (Homo sapiens (Human), UniProt P41595); assay: SAFETYscan off-target panel; format: cell-based; settings: 10 μM
Procedure: The SAFETYscan™ (DiscoverX) is used for rapid testing of any compound against a panel that includes well-known membrane proteins of importance for drug development such as selected voltage-gated ion channels, G-protein coupled receptors, neurotransmitter transporters and also a selected group of purified cellular enzymes.
Cell lines engineered to express individual transmembrane receptor proteins such as the muscarinic acetylcholine receptor or the dopamine D1 receptor were grown in culture in their standard growth medium until reaching confluence. […] The experiment also contains controls for comparison including known agonists and antagonists of the targeted membrane proteins.
For assays using purified enzymes, an enzyme assay is set up in standard reaction buffer and necessary indicators for activity such as co-factors, buffers and synthetic substrates. […] As positive controls, a binding assay using Rho kinase (ROCK) was included in the panel. Other targets in the panel included G-protein coupled receptors, nuclear hormone receptors, intracellular non-kinase enzymes, ion channels, and neurotransmitter transporters. The specific targets were chosen because of their previous known associations with being the source of problematic off-target effects in cellular or whole animal studies.

ROCK2 = ROCK2 (Homo sapiens (Human), UniProt O75116); assay: Direct filter-binding radiometric kinase assay, IC50 determination; format: biochemical
[1] = Brain penetration after IV, IP or PO administration in C57BL/6 mice; format: in vivo, mouse; settings: IV 5 mg/kg, IP 10 mg/kg, PO 30 mg/kg
Procedure: To determine the plasma concentrations and pharmacokinetics of the test compounds and test article following a single intravenous (IV) (5 mg/kg), intraperitoneal (IP) (10 mg/kg), or oral dose (PO) (30 mg/kg) administration to C57BL/6 male mice, the following testing [WAS/IS] performed according to the conductions set forth in Table 14.
The test drug is provided once as follows: Each I.V. dosing syringe is weighed loaded and unloaded to at least 4 decimal places. The actual dose (5 mg/kg) administered to the animal is the difference between the loaded and unloaded dosing syringe weights. Each IP dosing syringe is weighed loaded and unloaded to at least 4 decimal places. […]
Following I.V. dose administration, whole brain is collected following cardiocentesis from 4 animals at each of the following time points post-dose: 0.083 hr, 0.5 hr, 2 hr, 6 hr, 12 hr, and 24 hr. […] Whole brain is rinsed in 1×PBS, the tissue weight recorded and snap frozen in pre-labeled tubes using liquid nitrogen. In addition, whole brain from 5 naïve mice is harvested at 24 hr, rinsed in 1×PBS, the tissue weight recorded and snap frozen in pre-labeled tubes using liquid nitrogen.
Samples are analyzed by LC/MS/MS using an Agilent 6410 mass spectrometer coupled with an Agilent 1200 HPLC and a CTC PAL chilled autosampler, all controlled by MassHunter software (Agilent). […]

canine hepatocytes = assay: Metabolism in cultured hepatocytes; format: in vitro ADME; settings: Dog hepatocytes
rat hepatocytes = assay: Metabolism in cultured hepatocytes; format: in vitro ADME
Procedure: Test articles were incubated in duplicate rat hepatocytes at 37° C. The reaction contained […] KHB buffer, a pH 7.4. At indicated times (0 min, 15 min, 30 min, 60 min, 120 min), an aliquot was removed from each experimental and control reaction and mixed with an equal volume of ice-cold methanol. Stopped reactions were incubated at least ten minutes at −20° C. The samples were centrifuged to remove precipitated protein, and the supernatants were analyzed by LC-MS/MS.

[2] = test system: cynomolgus monkey hepatocytes; assay: Metabolism in cultured hepatocytes; format: in vitro ADME
hBMVEC monolayer = assay: LPA-treated hBMVECs, endothelial monolayer integrity; format: cell-based, human; settings: 1 μM or 10 μM, 20 μM LPA, Example 16, present tense
Procedure: Cells are exposed to each dose for 1 hr, and are then stimulated with 20 μM LPA for either 5 min or 1 hr as described below. All experiments are conducted in triplicate and analyzed by 2 independent assessors blinded to both cell line and treatment.
To examine hBMVECs monolayer integrity, cells are plated on PDL-coated coverslips (Corning) coated with Fibronectin, Collagen-1 and gelatin. 50,000 cells are seeded on each coverslip situated in a 24-well plate. Cells are grown for 3 days in ENDO-growth media (Neuromics) at 37° C./5% CO2. […] The medium is exchanged for ENDO basal media supplemented with 1% HSA, 20 μM of LPA (Santa Cruz Biotech; Santa Cruz, Calif.) and the appropriate amount of compound being tested. After 60 min, cells were fixed with 4% paraformaldehyde and stained for actin-phalloidin (ThermoFisher) and V-Cadherin (Cell Signaling), and then were mounted on microscope slides. Coverslips were imaged by fluorescence microscopy and the cell-free holes in the monolayer are measured using Image J. 3.

Sequence of ROCK1 (Q13464 2-1354 limits assumed): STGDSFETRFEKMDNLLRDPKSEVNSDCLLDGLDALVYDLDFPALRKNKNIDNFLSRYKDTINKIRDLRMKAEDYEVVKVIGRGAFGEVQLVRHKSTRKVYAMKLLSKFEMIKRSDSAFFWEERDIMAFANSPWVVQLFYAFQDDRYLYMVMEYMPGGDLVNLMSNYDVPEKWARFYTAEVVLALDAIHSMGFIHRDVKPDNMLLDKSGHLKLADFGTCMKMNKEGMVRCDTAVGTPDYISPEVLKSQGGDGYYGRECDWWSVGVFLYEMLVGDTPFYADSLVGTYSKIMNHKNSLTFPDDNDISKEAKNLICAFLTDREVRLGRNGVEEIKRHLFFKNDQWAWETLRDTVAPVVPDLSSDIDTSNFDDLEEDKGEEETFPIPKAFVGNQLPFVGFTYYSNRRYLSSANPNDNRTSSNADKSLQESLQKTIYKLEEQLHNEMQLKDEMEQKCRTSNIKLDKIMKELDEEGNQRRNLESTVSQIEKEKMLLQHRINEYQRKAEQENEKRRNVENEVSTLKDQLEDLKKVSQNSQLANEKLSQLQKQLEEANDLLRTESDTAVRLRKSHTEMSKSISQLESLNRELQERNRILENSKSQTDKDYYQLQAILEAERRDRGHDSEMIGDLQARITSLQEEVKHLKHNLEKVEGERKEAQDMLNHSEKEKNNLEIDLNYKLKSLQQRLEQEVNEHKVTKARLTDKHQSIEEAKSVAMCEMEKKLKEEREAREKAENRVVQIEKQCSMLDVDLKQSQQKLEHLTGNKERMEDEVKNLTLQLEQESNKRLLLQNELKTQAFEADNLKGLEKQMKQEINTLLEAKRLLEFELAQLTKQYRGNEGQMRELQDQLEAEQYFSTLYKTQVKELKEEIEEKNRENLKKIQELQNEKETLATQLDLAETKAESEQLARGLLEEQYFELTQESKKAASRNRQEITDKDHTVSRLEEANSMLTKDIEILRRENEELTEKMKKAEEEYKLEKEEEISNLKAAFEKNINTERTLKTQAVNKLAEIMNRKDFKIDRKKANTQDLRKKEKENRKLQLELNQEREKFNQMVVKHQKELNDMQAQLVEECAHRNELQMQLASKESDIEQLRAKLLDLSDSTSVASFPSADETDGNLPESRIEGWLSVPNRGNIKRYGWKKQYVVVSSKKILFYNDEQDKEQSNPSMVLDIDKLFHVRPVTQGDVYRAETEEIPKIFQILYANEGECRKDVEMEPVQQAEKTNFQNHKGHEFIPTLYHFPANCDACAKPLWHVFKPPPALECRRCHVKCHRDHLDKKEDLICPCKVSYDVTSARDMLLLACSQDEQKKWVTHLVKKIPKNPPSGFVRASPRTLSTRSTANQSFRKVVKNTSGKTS
Sequence of 5-HT2b-receptor (P41595 whole entry): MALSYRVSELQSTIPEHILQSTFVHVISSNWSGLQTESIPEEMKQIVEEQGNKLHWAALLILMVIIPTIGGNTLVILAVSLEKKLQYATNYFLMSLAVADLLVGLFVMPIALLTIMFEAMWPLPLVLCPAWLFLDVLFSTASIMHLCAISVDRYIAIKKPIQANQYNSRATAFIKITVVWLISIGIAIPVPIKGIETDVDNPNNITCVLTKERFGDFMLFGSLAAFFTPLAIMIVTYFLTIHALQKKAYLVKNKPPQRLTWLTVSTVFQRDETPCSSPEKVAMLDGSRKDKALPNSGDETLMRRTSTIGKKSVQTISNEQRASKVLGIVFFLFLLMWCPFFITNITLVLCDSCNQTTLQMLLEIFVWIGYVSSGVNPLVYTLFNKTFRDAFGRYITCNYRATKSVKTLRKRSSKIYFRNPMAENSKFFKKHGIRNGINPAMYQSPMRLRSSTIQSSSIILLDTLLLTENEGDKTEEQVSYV

SMILES	IC50 (ROCK1; 10 μM ATP, Table 2, read-out: Compound IC50 ROCK1)	IC50 (ROCK1; Compound IC50 ROCK1 10 μM ATP, CRO Eurofins, 10 μM ATP)	IC50 (ROCK1; Compound IC50 ROCK1 10 μM ATP, CRO Reaction Biology, 10 μM ATP)	IC50 (ROCK1; Compound IC50 ROCK1 70 μM ATP, Km ATP 70 μM, Table 3)	IC50 (ROCK1; Compound IC50 ROCK1 70 μM ATP, Km ATP 70 μM, Table 7)	interaction with the 5-HT2b-receptor (5-HT2b-receptor)	IC50 (ROCK2; 10 μM ATP, Table 2, read-out: Compound IC50 ROCK2)	IC50 (ROCK2; Compound IC50 ROCK2 10 μM ATP, CRO Eurofins, 10 μM ATP)	IC50 (ROCK2; Compound IC50 ROCK2 10 μM ATP, CRO Reaction Biology, 10 μM ATP)	IC50 (ROCK2; Compound IC50 ROCK2 15 μM ATP, Km ATP 15 μM, Table 3)	IC50 (ROCK2; Compound IC50 ROCK2 15 μM ATP, Km ATP 15 μM, Table 7)	IC50 (ROCK2; read-out: Compound IC50 ROCK2 10 μM ATP, CRO Eurofins, 10 μM ATP)	penetration into the brain [1]	metabolism by hepatocytes (canine hepatocytes)	½ Life (canine hepatocytes)	½ Life (rat hepatocytes)	½ Life [2]	monolayer integrity / Rho/ROCK activation after LPA (hBMVEC monolayer)
C[C@@H](N)C1CCN(S(=O)(=O)c2cccc3cnccc23)CC1 [BA-1049 (R)]	3900 nM	3900 nM	690 nM	29600 nM	29600 nM	potential antagonistic interaction	240 nM	240 nM	340 nM	340 nM	340 nM	240 nM	able to penetrate the brain by the three routes of administration	do not show any detectable metabolism	>480 min	60 min	15.3 min	–
C[C@@H](N)C1CCN(S(=O)(=O)c2cccc3c(=O)[nH]ccc23)CC1 [1-hydroxy-BA-1049 (R)]	–	–	–	–	–	–	–	–	–	–	–	–	–	–	–	–	–	prevent Rho/ROCK activation
